Results taken from the supplement of paper PMC10307832.

Legend:
Assay in all cases: relative viability (nuclei count vs DMSO), 5 days (fraction); higher = more cells survive
NCI-H2347 = system: NCI-H2347
Procedure, shortened: (§1)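 Each reported value is a median over duplicate plates. It expresses relative viability: treated-well nuclei count divided by vehicle-well nuclei count. Lung cancer cell lines in 1536-well plates were dosed by pin tool a day after seeding, alone with one drug or with a fixed anchor-drug dose plus five library-drug doses (not always all listed) in √10 steps, and nuclei were counted after 5 days.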

EPLC-272H = system: EPLC-272H
Procedure, shortened: as §1

H3255 = system: H3255
Procedure, shortened: as §1

NCI-H661 = system: NCI-H661
Procedure, shortened: as §1

201T = system: 201T
Procedure, shortened: as §1

COR-L 105 = system: COR-L 105
Procedure, shortened: as §1

NCI-H2087 = system: NCI-H2087
Procedure, shortened: as §1

NCI-H2126 = system: NCI-H2126
Procedure, shortened: as §1

NCI-H2405 = system: NCI-H2405
Procedure, shortened: as §1

HCC-78 = system: HCC-78
Procedure, shortened: as §1

LC-2-ad = system: LC-2-ad
Procedure, shortened: as §1

NCI-H1666 = system: NCI-H1666
Procedure, shortened: as §1

LCLC-97TM1 = system: LCLC-97TM1
Procedure, shortened: as §1

NCI-H23 = system: NCI-H23
Procedure, shortened: as §1

NCI-H520 = system: NCI-H520
Procedure, shortened: as §1

HCC-827 = system: HCC-827
Procedure, shortened: as §1

NCI-H1915 = system: NCI-H1915
Procedure, shortened: as §1

NCI-H647 = system: NCI-H647
Procedure, shortened: as §1

PC-14 = system: PC-14
Procedure, shortened: as §1

RERF-LC-KJ = system: RERF-LC-KJ
Procedure, shortened: as §1

NCI-H650 = system: NCI-H650
Procedure, shortened: as §1

Which relative viability (NCI-H2347; first compound 0.01 µM) does the source give for `CCN(CC)CCCCNc1ncc2cc(-c3cc(OC)cc(OC)c3)c(NC(=O)NC(C)(C)C)nc2n1` + C[C@]1(O)C[C@@H](c2nc(-c3ccc4ccc(-c5ccccc5)nc4c3)c3c(N)nccn32)C1 [Linsitinib] (partner 1 µM) here?
The relative viability was 0.93.

And the relative viability (NCI-H2347; first compound 0.03162 µM)?
Its relative viability is 0.999.

What about the relative viability (NCI-H2347; first compound 0.1 µM) of the same compound?
The relative viability was 0.916.

What about the relative viability (NCI-H2347; first compound 0.3162 µM) of the same compound?
Its relative viability is 1.05.

What about the relative viability (NCI-H2347; first compound 1 µM) of the same compound?
Its relative viability is 0.889.

And the relative viability (EPLC-272H; first compound 0.01 µM)?
The relative viability was 1.26.

What about the relative viability (EPLC-272H; first compound 0.1 µM) of the same compound?
The relative viability was 1.1.

What about the relative viability (EPLC-272H; first compound 0.3162 µM) of the same compound?
The relative viability was 1.32.

And the relative viability (EPLC-272H; first compound 1 µM)?
Its relative viability is 1.17.

What about the relative viability (H3255; first compound 0.01 µM) of the same compound?
The relative viability was 1.02.

What about the relative viability (H3255; first compound 0.03162 µM) of the same compound?
Its relative viability is 1.04.

And the relative viability (H3255; first compound 0.1 µM)?
The relative viability was 0.986.

What about the relative viability (H3255; first compound 0.3162 µM) of the same compound?
Its relative viability is 1.06.

And the relative viability (H3255; first compound 1 µM)?
The relative viability was 0.892.

And the relative viability (NCI-H661; first compound 0.01 µM)?
The relative viability was 0.568.

And the relative viability (NCI-H661; first compound 0.03162 µM)?
The relative viability was 0.45.

What about the relative viability (NCI-H661; first compound 0.1 µM) of the same compound?
Its relative viability is 0.58.

And the relative viability (NCI-H661; first compound 0.3162 µM)?
The relative viability was 0.61.

What about the relative viability (NCI-H661; first compound 1 µM) of the same compound?
The relative viability was 0.535.

And the relative viability (201T; first compound 0.01 µM)?
Its relative viability is 1.07.

And the relative viability (201T; first compound 0.03162 µM)?
Its relative viability is 1.02.

And the relative viability (201T; first compound 0.1 µM)?
The relative viability was 1.07.

And the relative viability (201T; first compound 0.3162 µM)?
The relative viability was 1.12.

What about the relative viability (201T; first compound 1 µM) of the same compound?
The relative viability was 1.02.

What about the relative viability (COR-L 105; first compound 0.01 µM) of the same compound?
The relative viability was 1.1.

What about the relative viability (COR-L 105; first compound 0.03162 µM) of the same compound?
Its relative viability is 0.794.

And the relative viability (COR-L 105; first compound 0.1 µM)?
Its relative viability is 1.02.

What about the relative viability (COR-L 105; first compound 0.3162 µM) of the same compound?
Its relative viability is 0.963.

What about the relative viability (COR-L 105; first compound 1 µM) of the same compound?
The relative viability was 0.868.

And the relative viability (NCI-H2087; first compound 0.01 µM)?
The relative viability was 0.912.

And the relative viability (NCI-H2087; first compound 0.03162 µM)?
The relative viability was 0.979.

What about the relative viability (NCI-H2087; first compound 0.1 µM) of the same compound?
The relative viability was 1.21.

And the relative viability (NCI-H2087; first compound 0.3162 µM)?
The relative viability was 1.02.

And the relative viability (NCI-H2087; first compound 1 µM)?
Its relative viability is 0.883.

And the relative viability (NCI-H2126; first compound 0.01 µM)?
Its relative viability is 0.725.

And the relative viability (NCI-H2126; first compound 0.03162 µM)?
Its relative viability is 0.712.

And the relative viability (NCI-H2126; first compound 0.1 µM)?
Its relative viability is 0.794.

And the relative viability (NCI-H2126; first compound 0.3162 µM)?
The relative viability was 0.674.

And the relative viability (NCI-H2126; first compound 1 µM)?
The relative viability was 0.708.

What about the relative viability (NCI-H2405; first compound 0.01 µM) of the same compound?
Its relative viability is 0.76.

What about the relative viability (NCI-H2405; first compound 0.03162 µM) of the same compound?
Its relative viability is 0.862.

And the relative viability (NCI-H2405; first compound 0.1 µM)?
The relative viability was 0.863.

And the relative viability (NCI-H2405; first compound 0.3162 µM)?
Its relative viability is 1.03.

And the relative viability (NCI-H2405; first compound 1 µM)?
Its relative viability is 0.817.

What about the relative viability (HCC-78; first compound 0.03162 µM) of the same compound?
The relative viability was 0.55.

And the relative viability (HCC-78; first compound 0.1 µM)?
The relative viability was 0.497.

What about the relative viability (HCC-78; first compound 0.3162 µM) of the same compound?
Its relative viability is 0.593.

What about the relative viability (HCC-78; first compound 1 µM) of the same compound?
The relative viability was 0.415.

What about the relative viability (LC-2-ad; first compound 0.01 µM) of the same compound?
Its relative viability is 0.803.

And the relative viability (LC-2-ad; first compound 0.03162 µM)?
The relative viability was 0.913.

What about the relative viability (LC-2-ad; first compound 0.1 µM) of the same compound?
The relative viability was 0.958.

And the relative viability (LC-2-ad; first compound 0.3162 µM)?
The relative viability was 0.876.

And the relative viability (LC-2-ad; first compound 1 µM)?
Its relative viability is 0.757.

And the relative viability (NCI-H1666; first compound 0.01 µM)?
Its relative viability is 1.04.

And the relative viability (NCI-H1666; first compound 0.03162 µM)?
The relative viability was 0.674.

And the relative viability (NCI-H1666; first compound 0.1 µM)?
The relative viability was 0.997.

What about the relative viability (NCI-H1666; first compound 0.3162 µM) of the same compound?
The relative viability was 0.944.

What about the relative viability (NCI-H1666; first compound 1 µM) of the same compound?
Its relative viability is 0.726.

What about the relative viability (LCLC-97TM1; first compound 0.03162 µM) of the same compound?
The relative viability was 0.176.

And the relative viability (LCLC-97TM1; first compound 0.1 µM)?
The relative viability was 0.23.

And the relative viability (LCLC-97TM1; first compound 0.3162 µM)?
Its relative viability is 0.199.

And the relative viability (LCLC-97TM1; first compound 1 µM)?
Its relative viability is 0.216.

What about the relative viability (NCI-H23; first compound 0.01 µM) of the same compound?
Its relative viability is 0.669.

And the relative viability (NCI-H23; first compound 0.03162 µM)?
Its relative viability is 0.63.

And the relative viability (NCI-H23; first compound 0.1 µM)?
Its relative viability is 0.644.

What about the relative viability (NCI-H23; first compound 0.3162 µM) of the same compound?
The relative viability was 0.601.

And the relative viability (NCI-H23; first compound 1 µM)?
Its relative viability is 0.516.

What about the relative viability (NCI-H520; first compound 0.01 µM) of the same compound?
Its relative viability is 0.998.

And the relative viability (NCI-H520; first compound 0.03162 µM)?
Its relative viability is 1.02.

What about the relative viability (NCI-H520; first compound 0.1 µM) of the same compound?
Its relative viability is 0.948.

What about the relative viability (NCI-H520; first compound 0.3162 µM) of the same compound?
The relative viability was 0.912.

What about the relative viability (NCI-H520; first compound 1 µM) of the same compound?
Its relative viability is 0.332.

What about the relative viability (HCC-827; first compound 0.01 µM) of the same compound?
Its relative viability is 0.933.

And the relative viability (HCC-827; first compound 0.03162 µM)?
Its relative viability is 0.987.

And the relative viability (HCC-827; first compound 0.1 µM)?
Its relative viability is 1.01.

What about the relative viability (HCC-827; first compound 0.3162 µM) of the same compound?
Its relative viability is 0.982.

And the relative viability (HCC-827; first compound 1 µM)?
Its relative viability is 0.961.

What about the relative viability (NCI-H1915; first compound 0.01 µM) of the same compound?
Its relative viability is 1.11.

And the relative viability (NCI-H1915; first compound 0.03162 µM)?
Its relative viability is 1.12.

And the relative viability (NCI-H1915; first compound 0.1 µM)?
The relative viability was 1.12.

And the relative viability (NCI-H1915; first compound 0.3162 µM)?
Its relative viability is 1.1.

What about the relative viability (NCI-H1915; first compound 1 µM) of the same compound?
Its relative viability is 1.15.

What about the relative viability (NCI-H647; first compound 0.01 µM) of the same compound?
Its relative viability is 1.31.

What about the relative viability (NCI-H647; first compound 0.03162 µM) of the same compound?
Its relative viability is 1.09.

What about the relative viability (NCI-H647; first compound 0.1 µM) of the same compound?
Its relative viability is 1.75.

What about the relative viability (NCI-H647; first compound 0.3162 µM) of the same compound?
The relative viability was 1.52.

What about the relative viability (NCI-H647; first compound 1 µM) of the same compound?
Its relative viability is 1.

What about the relative viability (PC-14; first compound 0.01 µM) of the same compound?
The relative viability was 1.01.

What about the relative viability (PC-14; first compound 0.03162 µM) of the same compound?
The relative viability was 1.03.

What about the relative viability (PC-14; first compound 0.1 µM) of the same compound?
Its relative viability is 1.02.

What about the relative viability (PC-14; first compound 0.3162 µM) of the same compound?
The relative viability was 1.09.

What about the relative viability (PC-14; first compound 1 µM) of the same compound?
The relative viability was 0.885.

And the relative viability (RERF-LC-KJ; first compound 0.01 µM)?
Its relative viability is 0.891.

What about the relative viability (RERF-LC-KJ; first compound 0.03162 µM) of the same compound?
The relative viability was 0.961.

And the relative viability (RERF-LC-KJ; first compound 0.1 µM)?
Its relative viability is 1.04.

And the relative viability (RERF-LC-KJ; first compound 0.3162 µM)?
The relative viability was 1.01.

What about the relative viability (RERF-LC-KJ; first compound 1 µM) of the same compound?
The relative viability was 0.887.

And the relative viability (NCI-H650; first compound 0.01 µM)?
The relative viability was 0.792.

And the relative viability (NCI-H650; first compound 0.03162 µM)?
The relative viability was 0.929.

And the relative viability (NCI-H650; first compound 0.1 µM)?
Its relative viability is 0.97.

What about the relative viability (NCI-H650; first compound 0.3162 µM) of the same compound?
The relative viability was 1.1.

And the relative viability (NCI-H650; first compound 1 µM)?
Its relative viability is 0.789.
